These molecules were tested against Akt1 (Homo sapiens (Human), UniProt P31749) (assay: Akt1 kinase assay (Akt1 TR-FRET assay)). Conditions: His-tagged human recombinant full-length Akt1, 10 μM ATP, 1 μM peptide substrate.
Format: biochemical
Description: Biological Assay 1.0: Akt1 Kinase Assay
Akt1 inhibitory activity of compounds of the present invention was quantified employing the Akt1 TR-FRET assay as described in the following paragraphs.
His-tagged human recombinant kinase full-length Akt1 expressed in insect cells was purchased form Invitrogen (part number PV 3599). As substrate for the kinase reaction the biotinylated peptide biotin-Ahx-KKLNRTLSFAEPG (C-terminus in amide form) was used which can be purchased e.g. from the company Biosynthan GmbH (Berlin-Buch, Germany).
For the assay 50 nl of a 100 fold concentrated solution of the test compound in DMSO was pipetted into a black low volume 384 well microtiter plate (Greiner Bio-One, Frickenhausen, Germany), 2 μl of a solution of Akt1 in assay buffer [50 mM TRIS/HCl pH 7.5, 5 mM MgCl2, 1 mM dithiothreitol, 0.02% (v/v) Triton X-100 (Sigma)] were added and the mixture was incubated for 15 min at 22° C. to allow pre-binding of the test compounds to the enzyme before the start of the kinase reaction. Then the kinase reaction was started by the addition of 3 μl of a solution of adenosine-tri-phosphate (ATP, 16.7 μM=>final conc. in the 5 μl assay volume is 10 μM) and substrate (1.67 μM=>final conc. in the 5 μl assay volume is 1 μM) in assay buffer and the resulting mixture was incubated for a reaction time of 60 min at 22° C. The concentration of Akt1 in the assay was adjusted depending of the activity of the enzyme lot and was chosen appropriate to have the assay in the linear range, typical enzyme concentrations were in the range of about 0.05 ng/μl (final conc. in the 5 μl assay volume).
The reaction was stopped by the addition of 5 μl of a solution of HTRF detection reagents (200 nM streptavidine-XL665 [Cisbio] and 1.5 nM anti-phosho-Serine antibody [Millipore, cat. #35-001] and 0.75 nM LANCE Eu-W 1024 labeled anti-mouse IgG antibody [Perkin Elmer]) in an aqueous EDTA-solution (100 mM EDTA, 0.1% (w/v) bovine serum albumin in 50 mM HEPES/NaOH pH 7.5).
The resulting mixture was incubated 1 h at 22° C. to allow the binding of the biotinylated phosphorylated peptide to the streptavidine-XL665 and the antibodies. Subsequently the amount of phosphorylated substrate was evaluated by measurement of the resonance energy transfer from the anti-mouse-IgG-Eu-Chelate to the streptavidine-XL665. Therefore, the fluorescence emissions at 620 nm and 665 nm after excitation at 350 nm was measured in a HTRF reader, e.g. a Rubystar (BMG Labtechnologies, Offenburg, Germany) or a Viewlux (Perkin-Elmer). The ratio of the emissions at 665 nm and at […] was taken as the measure for the amount of phosphorylated substrate. The data were normalised (enzyme reaction without inhibitor=0% inhibition, all other assay components but no enzyme=100% inhibition).

Chain of Akt1 (P31749 whole entry): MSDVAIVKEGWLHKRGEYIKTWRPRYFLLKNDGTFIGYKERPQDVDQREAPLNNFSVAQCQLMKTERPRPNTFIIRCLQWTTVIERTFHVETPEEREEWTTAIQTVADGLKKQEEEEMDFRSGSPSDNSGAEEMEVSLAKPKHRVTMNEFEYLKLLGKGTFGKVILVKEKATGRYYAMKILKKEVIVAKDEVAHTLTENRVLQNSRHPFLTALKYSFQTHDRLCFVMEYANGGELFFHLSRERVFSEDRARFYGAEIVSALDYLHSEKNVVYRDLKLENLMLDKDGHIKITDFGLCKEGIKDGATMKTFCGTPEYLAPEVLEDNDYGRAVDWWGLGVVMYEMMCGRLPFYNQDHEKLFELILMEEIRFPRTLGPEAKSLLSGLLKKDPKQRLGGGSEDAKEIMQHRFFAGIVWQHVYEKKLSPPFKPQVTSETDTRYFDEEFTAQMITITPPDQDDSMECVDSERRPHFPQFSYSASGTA

**Q.** For NC1(c2ccc(-c3nc4c5cccc(-c6cn[nH]c6)c5nn4cc3-c3ccccc3)cc2)CCC1 [Example 8.5, 1-{4-[3-Phenyl-7-(1H-pyrazol-4-yl)pyrimido[1,2-b]indazol-2-yl]-phenyl}cyclobutylamine×0.5 formiate], which IC50 is on record?
**A.** Its IC50 is 160 nM.

**Q.** For COC(=O)c1cccc2c1nn1cc(-c3ccccc3)c(-c3ccc(C4(N)CCC4)cc3)nc21 [Example 10, 2-[4-(1-Aminocyclobutyl)phenyl]-3-phenylpyrimido[1,2-b]indazole-7-carboxylic acid methyl ester formiate], which IC50 is on record?
**A.** The IC50 was 740 nM.

**Q.** NC(=O)/C=C/c1cccc2c1nn1cc(-c3ccccc3)c(-c3ccc(C4(N)CCC4)cc3)nc21 [Example 14, (E)-3-{2-[4-(1-Aminocyclobutyl)phenyl]-3-phenylpyrimido[1,2-b]indazol-7-yl}-acrylamide] was tested. Which IC50 did it give?
**A.** The IC50 was 580 nM.

**Q.** Which IC50 does the source give for NC1(c2ccc(-c3nc4c5ccc(-c6ccn[nH]6)cc5nn4cc3-c3ccccc3)cc2)CCC1 [Example 15.0, 1-{4-[3-Phenyl-8-(1H-pyrazol-5-yl)pyrimido[1,2-b]indazol-2-yl]phenyl}-cyclobutylamine] here?
**A.** Its IC50 is 15 nM.

**Q.** Cc1cc(-c2ccc3c(c2)nn2cc(-c4ccccc4)c(-c4ccc(C5(N)CCC5)cc4)nc32)[nH]n1 [Example 15.1, 1-{4-[8-(3-Methyl-1H-pyrazol-5-yl)-3-phenylpyrimido[1,2-b]indazol-2-yl]phenyl}cyclobutylamine] was tested. Which IC50 did it give?
**A.** The IC50 was 10 nM.

**Q.** For NC1(c2ccc(-c3nc4c5cc(-c6ccn[nH]6)ccc5nn4cc3-c3ccccc3)cc2)CCC1 [Example 15.2, 1-{4-[3-Phenyl-9-(1H-pyrazol-5-yl)pyrimido[1,2-b]indazol-2-yl]-phenyl}cyclobutylamine], which IC50 is on record?
**A.** Its IC50 is 10 nM.

**Q.** For Cc1cc(-c2ccc3nn4cc(-c5ccccc5)c(-c5ccc(C6(N)CCC6)cc5)nc4c3c2)[nH]n1 [Example 15.3, 1-{4-[9-(3-Methyl-1H-pyrazol-5-yl)-3-phenylpyrimido[1,2-b]indazol-2-yl]phenyl}cyclobutylamine], which IC50 is on record?
**A.** The IC50 was 6 nM.

**Q.** COC(=O)/C=C/c1ccc2nn3cc(-c4ccccc4)c(-c4ccc(C5(N)CCC5)cc4)nc3c2c1 [Example 15.4, (E)-3-{2-[4-(1-Aminocyclobutyl)phenyl]-3-phenylpyrimido[1,2-b]indazol-9-yl}acrylic acid methyl ester] was tested. Which IC50 did it give?
**A.** The IC50 was 10 nM.

**Q.** For NC(=O)/C=C/c1ccc2nn3cc(-c4ccccc4)c(-c4ccc(C5(N)CCC5)cc4)nc3c2c1 [Example 15.5, (E)-3-{2-[4-(1-Aminocyclobutyl)phenyl]-3-phenylpyrimido[1,2-b]indazol-9-yl}acrylamide], which IC50 is on record?
**A.** The IC50 was 30 nM.
